Here are results for one compound from ChEMBL document CHEMBL5257056, “Accelerated Discovery of Macrocyclic CDK2 Inhibitor QR-6401 by Generative Models and Structure-Based Drug Design” (ACS Med Chem Lett, 2023).

Data set [1] is described as follows: in vitro. The note with it: human, microsomes.
Data set [2] in a line: in vitro. The note with it: dog, MDCK-MDR1.

As usually defined, the half-life is the time needed for the level to fall by half in the phase considered. Low values mean rapid decline, high ones slow decline. As a reminder, the Papp A→B is the apparent permeability from the apical to the basolateral side of a cell layer. Low readings indicate slow passage, high ones fast passage. As to `O=C1NCCCNC(=O)c2cccc(n2)Nc2cc([nH]n2)[C@H]2CC[C@H](C2)O1`, in “in vitro [1]”, the half-life at 0.75 h, 1 µM was found to be 1.07 h. In the data set “in vitro [2]”, this compound displayed an apparent permeability from apical to basolateral (Papp A→B) at […], 5 µM of 0.9 ×10⁻⁶ cm/s.
